Reference: ChEMBL document CHEMBL1821627, “Medicinal chemistry as a conduit for the modulation of quorum sensing” (J Med Chem, 2010)
Where a SMILES comes first, the peptide text is derived from it. Bridges are numbered along the chain shown (N, C = ends).

Legend:
PC-3 = assay: Growth inhibition of human PC3 cells; assay type: functional, cell-based
[1] = biological target: T1, Transcriptional activator protein LuxR (Aliivibrio fischeri, UniProt P12746); assay: Agonist activity at Vibrio fischeri luxR receptor in absence of natural autoinducer; assay type: functional
T1 sequence (P12746 whole entry): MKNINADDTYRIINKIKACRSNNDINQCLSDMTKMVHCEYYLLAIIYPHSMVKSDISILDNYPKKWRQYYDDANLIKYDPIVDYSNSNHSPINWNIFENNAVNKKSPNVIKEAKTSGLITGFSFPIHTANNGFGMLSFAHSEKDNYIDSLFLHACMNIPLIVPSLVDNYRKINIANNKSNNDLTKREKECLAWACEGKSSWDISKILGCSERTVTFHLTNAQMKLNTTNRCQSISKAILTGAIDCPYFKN

[2] = Inhibition of Staphylococcus aureus Quorum sensing system AgrC-I activation after 60 to 90 minutes by beta-lactamase reporter assay; conditions: read-out: IC50
[3] = Inhibition of Staphylococcus aureus Quorum sensing system AgrC-IV activation after 60 to 90 minutes by beta-lactamase reporter assay
[4] = Inhibition of Staphylococcus aureus Quorum sensing system AgrC-III activation after 60 to 90 minutes by […]
[5] = Inhibition of Staphylococcus aureus Quorum sensing system AgrC-II activation after 60 to 90 minutes by beta-lactamase reporter assay; conditions: read-out: IC50
[6] = biological target: T2, Transcriptional activator protein LasR (Pseudomonas aeruginosa (strain ATCC 15692 / PAO1 / 1C / PRS 101 / LMG12228), UniProt P25084); assay: Agonist activity at Pseudomonas aeruginosa LasR receptor expressed in Escherichia coli in absence of natural autoinducer; assay type: functional
T2 sequence (P25084 whole entry): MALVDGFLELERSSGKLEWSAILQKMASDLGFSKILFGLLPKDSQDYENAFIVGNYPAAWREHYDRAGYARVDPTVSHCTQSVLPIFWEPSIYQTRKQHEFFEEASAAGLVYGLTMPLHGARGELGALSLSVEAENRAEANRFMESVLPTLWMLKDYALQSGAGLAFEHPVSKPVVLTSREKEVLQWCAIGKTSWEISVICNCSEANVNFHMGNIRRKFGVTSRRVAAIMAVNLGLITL

[7] = Inhibition of autoinducer-stimulated quorum sensing regulated bioluminescence in Vibrio fischeri by luminescence assay; set-up: species or system Aliivibrio fischeri
[8] = biological target: T3, Transcriptional activator protein TraR (Agrobacterium tumefaciens, UniProt P33905); assay: Antagonist activity at Agrobacterium tumefaciens TraR receptor in presence of 100 nM 3-oxo-C8-HSL; assay type: functional
T3 sequence (P33905 whole entry): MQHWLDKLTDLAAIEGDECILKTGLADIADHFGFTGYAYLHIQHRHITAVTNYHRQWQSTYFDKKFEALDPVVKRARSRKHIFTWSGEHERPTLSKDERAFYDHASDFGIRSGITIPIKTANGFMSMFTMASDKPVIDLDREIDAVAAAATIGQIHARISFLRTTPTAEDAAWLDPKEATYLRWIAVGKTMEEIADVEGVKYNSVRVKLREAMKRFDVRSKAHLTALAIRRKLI

[9] = biological target: T1, Transcriptional activator protein LuxR; assay: Antagonist activity at Vibrio fischeri luxR receptor in presence of 5 uM 3-oxo-C6-HSL; assay type: functional
[10] = biological target: T2, Transcriptional activator protein LasR; assay: Antagonist activity at Pseudomonas aeruginosa LasR receptor expressed in Escherichia coli in presence of 7.5 nM natural auto-inducer 3-oxo-C12-HSL; assay type: functional
[11] = biological target: T2, Transcriptional activator protein LasR; assay: Agonist activity at Pseudomonas aeruginosa LasR cognate receptor expressed in Escherichia coli harboring pKDT17 assessed as activation of lasB expression by LacZ reporter gene assay; assay type: functional

Structure (SMILES): O=C(CCCCCCCCCCCc1ccccc1)N[C@H]1CCOC1=O
- IC50 (PC-3): > 100000 nM

Structure (SMILES): O=C(Cc1cccc([N+](=O)[O-])c1)N[C@H]1CCOC1=O
- EC50 [1]: 350 nM

Structure (SMILES): CC(=O)N[C@H]1CSC(=O)[C@H](Cc2ccccc2)NC(=O)[C@H](CC(C)C)NC(=O)[C@H](CO)NC(=O)[C@H](CO)NC1=O (Ac-CSSLF; thioester 1-C)
- IC50 [2]: 272 nM
- IC50 [3]: 188 nM
- IC50 [4]: 10 nM
- IC50 [5]: 209 nM

Structure (SMILES): O=C(CC(=O)N[C@H]1CCOC1=O)Cc1ccccc1
- EC50 [6]: 540 nM

Structure (SMILES): CCCCCCCCCC(=O)N[C@H]1CCOC1=O
- IC50 [7]: 39.2 nM
- IC50 [8]: 1050 nM
- IC50 [9]: 400 nM
- IC50 [10]: 250 nM

Structure (SMILES): CCCCCCC(=O)N[C@H]1CCOC1=O
- IC50 [8]: 690 nM
- IC50 [9]: 1360 nM

Structure (SMILES): CCCCCCCCCCCC(=O)CC(=O)N[C@H]1CCOC1=O
- EC50 [6]: 10 nM
- EC50 [11]: 15 nM
